Data on eight molecules can be found in PMC10031131, “Design, synthesis and evaluation of a series of potential prodrugs of a Bruton’s tyrosine kinase (BTK) inhibitor” (Frontiers in Pharmacology, 2023).

SMILES strings stand for the structures. In brackets after ≈: the same amount, converted by molar mass. Like-named read-outs stand apart in the source and are kept apart here.

Data set [1] deals with T1, BTK (Homo sapiens, UniProt Q06187).
T1 construct: purchased Carna Biosciences
The conditions noted are these: Figure 2; ref Kuglstatter et al., 2011; cited from earlier work.

The nature of data set [2]: Chemical stability in DMSO or buffer by HPLC. It counts as physicochemical. The note with it: HPLC analysis of in vitro stability after 24 h at room temperature.
A short description of data set [3]: Thermodynamic solubility determination assay. It counts as physicochemical. The conditions noted are these: Britton-Robinson buffer (pH 6.5); for solubility thermodynamic: 25 °C, aqueous buffer, thermodynamic from solid, average of two measurements, read-out: S, pH 6.5 (thermodynamic solubility). Here is the method:
Prior to mixing with the appropriate medium, the test chemical was accurately weighed into an appropriately sized screw-capped glass vial. The generated slurry was sonicated at room temperature for 20 min and at 50°C for 15 min, and then agitated at room temperature for at least two days before the crystallinity of the remaining solid was examined using a polarized light microscope. If crystallinity was not observed, more time for equilibration was allowed. The slurry was aliquoted into 1.5 mL centrifuge tubes on the day of analysis and centrifuged at 15,000 rpm for 20 min at 25°C. The supernatant’s concentration was determined by UV-vis (YOKE, T-U7S).

On the set-up of data set [4]: method as in Li et al., 2014. The conditions noted are these: FaSSIF (Fasted State Simulated Intestinal Fluid, pH 6.5) medium; ref Li et al., 2014; cited from earlier work.
Details of data set [5]: method as in Li et al., 2014. The conditions noted are these: ref Li et al., 2014; cited from earlier work.
In the next data set the test system is BTK^C481S. The arrangement: method as in Gui et al., 2019. The note with it: Figure 2; ref Gui et al., 2019; cited from earlier work.
Data set [6] has as its target T1, BTK. Briefly: Cell-free kinase enzymology assay (HTRF KinEase). It counts as biochemical. The method, then: FIGURE 4 (A) Enzymatic activities of parent 4 and prodrugs 5a-c for BTK. Kinase enzymology assays were carried out in accordance with the protocols described in the HTRF KinEase assays. (B) Time-dependent plasma stability assay.
The kinase (BTK) was acquired from Carna Biosciences. Kinase acitivity assays were carried out based on Cisbio Bioassays’ HTRF® technology. At room temperature, kinase and substrate were combined with compounds in varied concentrations, followed by adding ATP to activate the enzymatic reactions. EDTA solution was added to stop the reactions after 1 h, followed by the addition of streptavidin XL665 conjugates and anti-phosphotyrosine antibodies. The mixtures were incubated for an additional 1 h at room temperature before reading on a plate reader (EnVision®, Perkin Elmer). GraphPad Prism was used to analyze the data.
(In TR-FRET formats the signal depends on donor and acceptor labels being close together.)

Data set [7] is described as follows: Human plasma stability assay. It counts as in vitro ADME. Here is the method: (§1) The in vitro stability in human plasma for the test compounds was investigated using procaine as the reference compound. The frozen human plasma was quickly thawed at 37°C. The spiking solution was made by combining 10 µL of a 10 mM compound stock solution with 990 µL of DMSO. The plasma and spiking solution were pre-warmed at 37°C for 5 min. Then 7 µL of the pre-warmed spiking solution was added into the 693 µL plasma evenly. The tests were carried out in duplicate in a 37°C shaking water bath. At 0, 5, 15, 30, 60, and 120 min, 100 µL samples were collected and added to a 400 µL solution containing an internal standard (IS). After quenching, the samples were vortexed for 5 min (600 rpm) and then centrifuged at 4,000 rpm for 20 min. LC-MS was used to analyze the clear supernatants. The values are the mean of two separate experiments.
as §1, with “at 37 °C.” for “at 37°C.”, “at 37 ℃” for “at 37°C”, “a 37 °C” for “a 37°C”

[8] abbreviates: DMSO, read-out: DMSO (% remaining).
The mark [9] stands for this setting: buffer pH 7.4, read-out: Buffer, pH 7.4 (% remaining).

T1 sequence (Q06187 whole entry): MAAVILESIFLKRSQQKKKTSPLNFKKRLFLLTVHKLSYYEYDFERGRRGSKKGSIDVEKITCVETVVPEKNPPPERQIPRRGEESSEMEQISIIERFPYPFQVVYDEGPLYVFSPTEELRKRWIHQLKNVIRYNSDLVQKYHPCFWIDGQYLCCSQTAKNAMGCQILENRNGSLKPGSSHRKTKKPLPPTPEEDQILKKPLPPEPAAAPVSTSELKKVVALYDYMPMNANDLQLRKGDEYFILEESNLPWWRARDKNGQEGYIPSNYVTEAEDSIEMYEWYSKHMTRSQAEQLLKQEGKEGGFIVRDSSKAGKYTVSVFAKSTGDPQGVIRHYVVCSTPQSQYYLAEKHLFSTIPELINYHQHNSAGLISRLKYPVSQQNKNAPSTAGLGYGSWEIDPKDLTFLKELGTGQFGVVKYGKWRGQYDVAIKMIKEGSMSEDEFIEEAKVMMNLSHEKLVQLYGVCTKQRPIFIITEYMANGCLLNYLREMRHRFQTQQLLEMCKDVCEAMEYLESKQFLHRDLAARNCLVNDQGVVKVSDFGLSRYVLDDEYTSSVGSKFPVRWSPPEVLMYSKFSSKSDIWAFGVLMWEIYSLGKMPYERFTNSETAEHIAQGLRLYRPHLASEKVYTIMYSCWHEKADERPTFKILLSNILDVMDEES

As usually defined, the IC50 is the point on the concentration scale where inhibition reaches its midpoint. In the case of `Cc1ccc(NC(=O)/C=C/c2ccccc2)cc1C(=O)Nc1cnc2[nH]c(-c3ccccc3)nc2c1` [Compound 1], the half-maximal inhibitory concentration (IC50) at BTK [1] is 5600 nM.

In general, share remaining refers to what is left of the initial amount, in per cent. By solubility (thermodynamic) is commonly meant solubility found after equilibrating the solid with the medium. Turning to `C=CC(=O)Nc1cccc(Nc2ncc(NC(=O)c3cc(NC(=O)c4cccc(C(F)(F)F)c4)ccc3C)cn2)c1` [Compound 2, reference compound], in data set [2] (setting [8]), the share remaining at 24 h was found to be 100%. Further, the thermodynamic solubility in data set [3] came to 2 µM (≈ 1.12 µg/mL). Moreover, the “solubility in FaSSIF” value in data set [4] was 7.02 µM (≈ 3.93 µg/mL). Moreover, the “bioavailability (F%)” value in data set [5] is reported as 0.9%.

With `Cc1cc(Nc2ncc3c(n2)N(C)CN(c2cc(NC(=O)c4cccc(C(F)(F)F)c4)ccc2C)C3)n(C)n1` [Compound 3], the half-inhibitory concentration (IC50) with BTK^C481S is 11 nM.

For `CC(=O)Nc1cc(Nc2ncc(NC(=O)c3cc(NC(=O)c4cccc(C(F)(F)F)c4)ccc3C)cn2)ccc1O` [Compound 4], the share remaining at 24 h in data set [2] (setting [8]) and in data set [2] (setting [9]) was 100% in each case. For the same molecule, the solubility (thermodynamic) in data set [3] was 6.6 µM (≈ 3.73 µg/mL). Half-maximal inhibition against BTK [6] (IC50) was put at 14 nM.

On to `CC(=O)Nc1cc(Nc2ncc(NC(=O)c3cc(NC(=O)c4cccc(C(F)(F)F)c4)ccc3C)cn2)ccc1OC(=O)CN1CCN(C)CC1` [Compound 5a], for which, in data set [2] (setting [8]), the amount remaining at 24 h worked out at 100%. For the same molecule, the share remaining at 24 h in data set [2] (setting [9]) is 99%. Moreover, the solubility (thermodynamic) in data set [3] turned out to be 88 µM (≈ 62 µg/mL). For the same molecule, in data set [7], the “Analyte Peak Area” value is on record as “BLOD”. Moreover, in data set [7] (human, 1 µM), the “time for conversion to parent 4 in human plasma” value is reported as “less than 2 h”. At BTK [6], it took 135 nM to reach half-maximal inhibition (IC50) and the “fold lower inhibitory potential for BTK compared to parent 4” value (from here on “fold lower inhibitory potential for BTK”) was 10 fold.

For `CC(=O)Nc1cc(Nc2ncc(NC(=O)c3cc(NC(=O)c4cccc(C(F)(F)F)c4)ccc3C)cn2)ccc1OC(=O)CN` [Compound 5b, 2-Acetamido-4-((5-(2-methyl-5-(3-(trifluoromethyl)benzamido)benzamido)pyrimidin-2-yl)amino)phenyl glycinate], the fraction remaining at 24 h in data set [2] (setting [8]) came out at 100%. Moreover, the share remaining at 24 h in data set [2] (setting [9]) turned out to be 98%. Also, in data set [3], the solubility (thermodynamic) was 22 µM (≈ 13.7 µg/mL) and the “increase of solubility compared to parent 4” value is “thrice”. At BTK [6], 92 nM corresponded to half-maximal inhibition (IC50) and the “fold lower inhibitory potential for BTK” value stood at 7 fold.

Consider `CC(=O)Nc1cc(Nc2ncc(NC(=O)c3cc(NC(=O)c4cccc(C(F)(F)F)c4)ccc3C)cn2)ccc1OC(=O)CN(C)C` [Compound 5c, 2-Acetamido-4-((5-(2-methyl-5-(3-(trifluoromethyl)benzamido)benzamido)pyrimidin-2-yl)amino)phenyl dimethylglycinate], for which the share remaining at 24 h in data set [2] (setting [8]) is 100%. Also, in data set [3], the solubility (thermodynamic) came out at 4.6 µM (≈ 2.99 µg/mL). Besides, at BTK [6], 124 nM corresponded to half-maximal inhibition (IC50) and the “fold lower inhibitory potential for BTK” value was found to be 9 fold.

Turning to `CCN(CC)CCOC(=O)c1ccc(N)cc1` [Procaine, reference compound], the “Analyte Peak Area” value is listed as “BLOD” in data set [7] (human plasma, 37°C, time 15 min, duplicates); “BLOD” in data set [7] (human plasma, 37°C, time 30 min, duplicates); “BLOD” in data set [7] (human plasma, 37°C, time 60 min, duplicates); “BLOD” in data set [7] (human plasma, 37°C, time 120 min, duplicates).
